# Experiments:
# [1] = after 60 minutes
# [2] = Pion's μSOL assay for kinetic solubility; type: physicochemical
# [3] = kinetic solubility analysis in PBS solution; type: physicochemical
# VEGF = conditions: human monocyte leukemia cells (THP1); previously reported, ref [9], [17]; cited from earlier work
# rat microsome stability = conditions: microsomes
molecule,measurement,setting,value
3-(Cyclohexanecarboxamido)-N-(3-(trifluoromethyl)phenyl)-benzamide [Compound 3],parent remaining in mouse liver microsomes,[1],70%
O=C(Nc1ccccc1C(=O)Nc1ccccc1C(=O)NCc1ccco1)c1ccco1 [Compound 1],solubility kinetic,physchem,1.6 µg/mL
"CCOc1ccccc1C(=O)Nc1ncccc1C(=O)Nc1cccc(S(=O)(=O)C(F)(F)F)c1 [Compound 49, 2-(2-Ethoxybenzamido)-N-(3-((trifluoromethyl)sulfonyl)phenyl)nicotinamide]",solubility,[2],< 1 µM
"CCOc1ccccc1C(=O)Nc1cnccc1C(=O)Nc1cccc(S(=O)(=O)C(F)(F)F)c1 [Compound 50, 3-(2-Ethoxybenzamido)-N-(3-((trifluoromethyl)sulfonyl)phenyl)isonicotinamide]",solubility,[2],< 1 µM
"CCOc1ccccc1C(=O)Nc1ccccc1C(=O)Nc1cccc(S(=O)(=O)C(F)(F)F)c1 [Compound 63, 2-Ethoxy-N-(2-((3-((trifluoromethyl)sulfonyl)phenyl)carbamoyl)phenyl)benzamide]",solubility,[3],< 1.1 µM
"CC(C)Oc1ccccc1C(=O)Nc1ccccc1C(=O)Nc1cccc(S(=O)(=O)C(F)(F)F)c1 [Compound 65, 2-Isopropoxy-N-(2-(3-(trifluoromethylsulfonyl)phenylcarbamoyl)phenyl)benzamide]",activation of VEGF transcription,VEGF,activate the transcription
same,half-life,rat microsome stability,28.2 min
